Assay results published in patent publication US20110152227A1, “DEUTERIUM LABELLED DERIVATIVES OF 3-(2-HYDROXY-5-METHYPHENYL)-N,N-DIISOPROPYL-3-PHENYLPROPYLAMINE AND METHODS OF USE THEREOF” (CONCERT PHARMACEUTICALS INC., priority 2008, published 2011).
Where two headings read alike, the source gives them in different places.

Experiment: Evaluation of metabolic stability in human liver microsomes
Format: in vitro ADME
Settings: for half-life at 1 μM: human, human liver microsomes; for half-life in human liver microsomes as compared to tolterodine: result in words, versus tolterodine
Description: Materials: Human liver microsomes (20 mg/mL) were obtained from Xenotech, LLC (Lenexa, Kans.). β-nicotinamide adenine dinucleotide phosphate, reduced form (NADPH), magnesium chloride (MgCl2), and dimethyl sulfoxide (DMSO) were purchased from Sigma-Aldrich.
The 7.5 mM stock solutions were diluted to 50 μM in acetonitrile (ACN). The 20 mg/mL human liver microsomes were diluted to 0.625 mg/mL in 0.1 M potassium phosphate buffer, pH 7.4, containing 3 mM MgCl2. The diluted microsomes were added to wells of a 96-well deep-well polypropylene plate in duplicate. Ten μL of one of the […] test compound solutions was added to the microsomes and the mixture was pre-warmed for 10 minutes. Reactions were initiated by addition of pre-warmed NADPH solution. The final reaction volume was 0.5 mL and contained 0.5 mg/mL human liver microsomes, 1 μM test compound, and 2 mM NADPH in 0.1 M potassium phosphate buffer, pH 7.4, and 3 mM MgCl2. The reaction mixtures were incubated at 37° C., and 50 μL aliquots were removed at 0, 5, 10, 20, and 30 minutes and added to shallow-well 96-well plates which contained 50 μL of ice-cold ACN with internal standard to stop the reactions. The plates were stored at 4° C. for 20 minutes after which 100 μL of water was added to the wells of the plate before centrifugation to pellet precipitated proteins. Supernatants were transferred to another 96-well plate and analyzed for amounts of parent remaining by LC-MS/MS using an Applied Bio-systems API 4000 mass spectrometer. 7-ethoxy coumarin (1 μM) was used as a positive control. The experiment was repeated as second time to confirm the results.
Data analysis: The in vitro t1/2s for test compounds were calculated from the slopes of the linear regression of % parent remaining (ln) vs incubation time relationship using the following formula: in vitro t1/2=0.693/k, where k=−[slope of linear regression of % parent remaining (ln) vs incubation time]. Data analysis was performed using Microsoft Excel Software.

[1] = pH 7.4, average of Experiment 1 and 2, human liver microsomes, read-out: Ave t1/2
[2] = pH 7.4, human liver microsomes 0.5 mg/mL, 1 μM test compound, 2 mM NADPH, 37° C., 0-30 minutes, Experiment 1, read-out: t1/2 (minutes) Experiment 1
[3] = pH 7.4, human liver microsomes 0.5 mg/mL, 1 μM test compound, 2 mM NADPH, 37° C., 0-30 minutes, Experiment 2 (repeat), read-out: t1/2 (minutes) Experiment 2

Row | half-life at 1 μM [1] | half-life at 1 μM [2] | half-life at 1 μM [3] | half-life in human liver microsomes as compared to tolterodine | Compound
1 | 26.6 min | 24.3 min | 28.9 min | substantially increased half-life | [2H]C([2H])([2H])c1ccc(O)c([C@H](CCN(C(C)C)C(C)C)c2ccccc2)c1 [Compound 112]
2 | 13.8 min | 13.4 min | 14.2 min | – | Cc1ccc(O)c(C(CCN(C(C)C)C(C)C)c2ccccc2)c1 (centres unmarked) [Tolterodine, 3-(2-hydroxy-5-methylphenyl)-N,N-diisopropyl-3-phenylpropylamine, reference compound]
3 | 25.8 min | 23.5 min | 28 min | substantially increased half-life | [2H]C([2H])([2H])c1ccc(O)c([C@H](CCN(C([2H])(C([2H])([2H])[2H])C([2H])([2H])[2H])C([2H])(C([2H])([2H])[2H])C([2H])([2H])[2H])c2ccccc2)c1 [Compound 100]
4 | 15.1 min | 14.6 min | 15.6 min | – | [2H]C([2H])([2H])C([2H])(N(CC[C@H](c1ccccc1)c1cc(C)ccc1O)C([2H])(C([2H])([2H])[2H])C([2H])([2H])[2H])C([2H])([2H])[2H] [Compound 106, (R)-2-(3-(Di(isopropyl-d7)amino)-1-phenylpropyl)-4-methylphenol]
